Measurements published in ChEMBL document CHEMBL1201862, “PubChem BioAssay data set” (2004).
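Briefly, cells in 96-well plates were exposed to five compound concentrations for 48 h, and endpoints were estimated by linear interpolation. At the GI50, growth is halved.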 Activity calls are given as the source filed them. No stated cut-off is given here; in the data, active = GI50 up to about 1.1 µM and inactive = higher.

Experiments:
Assay in all cases: DTP human tumour cell line panel, 48 h
UO-31 = system: UO-31
HCT-15 = system: HCT-15
COLO 205 = system: COLO 205
SF-539 = system: SF-539
EKVX = system: EKVX
CAKI-1 = system: CAKI-1
MDA-MB-231 = system: MDA-MB-231
OVCAR-4 = system: OVCAR-4
SN12C = system: SN12C
MCF7 = system: MCF7
SF-295 = system: SF-295
LOX IMVI = system: LOX IMVI
SK-MEL-28 = system: SK-MEL-28
A549 = system: A549
TK-10 = system: TK-10
SNB-19 = system: SNB-19
SF-268 = system: SF-268
OVCAR-8 = system: OVCAR-8
Malme-3M = system: Malme-3M
Hs-578T = system: Hs-578T

| SMILES | GI50 (UO-31) | GI50 (HCT-15) | GI50 (COLO 205) | GI50 (SF-539) | GI50 (EKVX) | GI50 (CAKI-1) | GI50 (MDA-MB-231) | GI50 (OVCAR-4) | GI50 (SN12C) | GI50 (MCF7) | GI50 (SF-295) | GI50 (LOX IMVI) | GI50 (SK-MEL-28) | GI50 (A549) | GI50 (TK-10) | GI50 (SNB-19) | GI50 (SF-268) | GI50 (OVCAR-8) | GI50 (Malme-3M) | GI50 (Hs-578T) |
| --- | --- | --- | --- | --- | --- | --- | --- | --- | --- | --- | --- | --- | --- | --- | --- | --- | --- | --- | --- | --- |
| CN1CCN(C(=O)CCNC(=O)Cc2ccc(C(=O)c3ccccc3)cc2)CC1 | > 100 µM (inactive) | > 100 µM | 74 µM (inactive) | > 100 µM (inactive) | > 100 µM (inactive) | > 100 µM (inactive) | > 100 µM (inactive) | > 100 µM (inactive) | > 100 µM (inactive) | > 100 µM (inactive) | > 100 µM (inactive) | > 100 µM (inactive) | > 100 µM (inactive) | > 100 µM (inactive) | > 100 µM (inactive) | > 100 µM (inactive) | > 100 µM (inactive) | > 100 µM (inactive) | > 100 µM (inactive) | > 100 µM (inactive) |
| COc1ccccc1/N=N/C(=N\NC(=O)c1ccc(C)cc1)c1ccc(N(CCC#N)CCC#N)cc1C | 61.9 µM (inactive) | 41.4 µM | 15.7 µM (inactive) | > 100 µM (inactive) | > 100 µM (inactive) | > 100 µM (inactive) | 47.9 µM (inactive) | 43.6 µM (inactive) | 39.4 µM (inactive) | 34.6 µM (inactive) | 48.5 µM (inactive) | 40.9 µM (inactive) | > 100 µM (inactive) | 40.9 µM (inactive) | > 100 µM (inactive) | 97.3 µM (inactive) | 38.1 µM (inactive) | 42.3 µM (inactive) | 25.4 µM (inactive) | 39.3 µM (inactive) |
| CC(C)CCNC(=O)c1ccc(CNC(=O)/C=C/c2csc(-c3ccccc3)n2)cc1 | 19.6 µM (inactive) | 95.5 µM | > 100 µM (inactive) | > 100 µM (inactive) | > 100 µM (inactive) | 18.7 µM (inactive) | 33 µM (inactive) | 14.5 µM (inactive) | 64.3 µM (inactive) | > 100 µM (inactive) | 33.9 µM (inactive) | > 100 µM (inactive) | 57.7 µM (inactive) | 40.1 µM (inactive) | 53.2 µM (inactive) | 17.8 µM (inactive) | 35.4 µM (inactive) | 25.8 µM (inactive) | 29.9 µM (inactive) | 32.6 µM (inactive) |
| CCCNC(=S)N/N=C(\C)c1ccc(S(=O)(=O)N(C)c2ccccc2)cc1 | > 100 µM (inactive) | > 88.5 µM | > 100 µM (inactive) | 5.25 µM (inactive) | 37.8 µM (inactive) | 24.2 µM (inactive) | 27.9 µM (inactive) | > 67.6 µM (inactive) | > 100 µM (inactive) | 57 µM (inactive) | 18.3 µM (inactive) | > 100 µM (inactive) | > 100 µM (inactive) | 46.3 µM (inactive) | 25.5 µM (inactive) | 39.4 µM (inactive) | 7.06 µM (inactive) | 24.5 µM (inactive) | > 100 µM (inactive) | 3.64 µM (inactive) |
| C=C=C(CC(CC(=C)Br)(C(=O)OC)C(=O)OC)S(=O)(=O)c1ccccc1 | 1.71 µM (inactive) | 1.51 µM | 1.84 µM (inactive) | 1.8 µM (inactive) | 2.82 µM (inactive) | 1.41 µM (inactive) | 1.98 µM (inactive) | 8.89 µM (inactive) | 1.53 µM (inactive) | 1.87 µM (inactive) | 13.4 µM (inactive) | 0.419 µM (active) | 1.76 µM (inactive) | 2.78 µM (inactive) | 1.96 µM (inactive) | 12.2 µM (inactive) | 2.37 µM (inactive) | 1.29 µM (inactive) | 1.91 µM (inactive) | 2.39 µM (inactive) |
